For series [1], the system named is gerbils. The series can be described thus: Gerbil model of stroke (cerebral ischemia/reperfusion). In kind it is in vivo. The settings on record: for locomotor activity of ischemic gerbils: pretreated 30 minutes prior to ischemic event, Figure III; for protective effect in gerbil model: 32 mg/kg, Figure V. From the text:
One of the primary therapeutic uses of pharmaceutical compositions containing these compounds will be in the treatment of stroke. Strokes are associated with cerebral ischemia. Initially, it was thought that the CNS damage that often accompanies a stroke was a direct result of the tissues being deprived of oxygen. Recent research has shown that most of the damage occurs when the tissues are reoxygenated during reperfusion. […] Gastroenterology, 82, 9-15 (1982). Oliver et al has shown that a significant amount of this damage occurs due to free oxygen radicals and the oxidation sequence which they initiate, Proc. Natl. Acad. Sci. USA, vol. 87, pp 5144-5147 July 1990. […] In this model the carotid arteries of gerbils are constricted surgically and after a predetermined period, the constriction is removed so that surrounding tissues may be reperfused. CNS damage, which occurs upon reperfusion, can be measured by the level of protein oxidation that occurs in the brain or by examining the gerbil's behavior. […] Oliver et al and Phillis et al have also shown similar results with PBN, supra and Neuroscience Letter, 116 (1990) 315-319.
The compound, 3,4-dihydro-3,3-dimethylisoquinoline N-oxide which was the product of Example I (hereinafter compound) was tested in a gerbil model as described above. The exact procedure utilized is described by Chandler et al. in Journal of Pharmacological Methods Vol. 14, pages 137-146 (1985). Figures I-V summarize the results that were obtained.
Figure I depicts the effect the compound had on the motor activity of non-ischemic gerbils.
Figure II depicts the effects that ischemia has upon the gerbils locomotor activity.
The gerbils were pretreated with the compound 30 minutes prior to initiation of the ischemic event.
Figure IV compares the neuronal loss of ischemic gerbils receiving various doses of compound with both control gerbils and non-ischemic gerbils.
All compounds were administered at 32 mg/kg. […] Compound A represents the product of Example I, F = Example III, and G = Example II.

The subject of series [2] is ENDOTOXIN TREATED RATS. The experiment in a line: Animal model of septic shock: survival of endotoxin treated rats. It is filed as in vivo, Male Sprague Dawley rats. The settings on record: 72 hours after endotoxin. How it is done:
In this test rats were injected with endotoxin and a control survival rate was determined. Other groups of rats were pretreated with one of the compounds of Formula I at varied dosages and then administered endotoxin and the survival rates were compared. This test was conducted in the following manner. Male Sprague Dawley rats were utilized (weight 215g-300g) in each test group. Endotoxin (30mg/kg) was administered intraperitoneally (IP). A test compound or vehicle was administered IP 30 minutes prior to endotoxin administration. The following results were obtained: TABLE III

Series [3] relates to INTERLEUKIN-1 RELEASE BY HUMAN MACROPHAGES
The experiment in a line: Inhibition of interleukin-1 release by endotoxin-stimulated human macrophages (ELISA). The settings on record: Macrophage, two million macrophages stimulated with 20 nanograms endotoxin for 24 hours, IL-1 in supernatant. In kind it is cell-based. The text has this:
These include arthritis, psoriasis, athersclerosis, and diabetes. […] One such in-vitro assay is based upon the fact that when human macrophages are exposed to endotoxin, the macrophages secrete IL-1.
The in-vitro studies of IL-1 production was facilitated by a specific property of macrophages, i. e. attachment to non-self, e.g. plastic surface. In this assay, human peripheral blood monocyte-derived macrophages were enriched by plastic adherence. Two million of these macrophages were stimulated with 20 nanograms of endotoxin for 24 hours. Culture supernatants were then collected and the levels of IL-1 were assayed by enzyme-linked immuno-sorbent assay (ELISA). The same assay was repeated except that it was done in the presence of the test compound. The assay was repeated until an IC50 was calculated.
A general note: ELISA stands for enzyme-linked immunosorbent assay.

The subject of series [4] is Interleukin-1. The series can be described thus: Blood levels of interleukin-1 in endotoxin-treated mice (ELISA). It is filed as in vivo, male Charles-Dawley mice. The settings on record: mice given endotoxin and test compound, endotoxin alone 58.3, vehicle without endotoxin 29.2. How it is done:
Normal 7 week old male Charles-Dawley mice were utilized in the assay. The mice were injected with vehicle and a baseline blood level of IL-1 was established by an IL-1 specific ELISA ninety (90) minutes after administration. The animals were then administered both endotoxin and vehicle and a blood level of IL-1 was determined. Finally the animals were administered endotoxin and the test compound and the effect upon IL-1 blood levels was determined.

In series [5] the test system is gerbils. The settings on record: literature (Floyd; Oliver et al; Phillis et al); versus control animals; cited from earlier work.
Series [6] relates to myocardial tissues. The settings on record: literature (Bolli et al); cited from earlier work.
Series [7] relates to animal models of circulatory shock. The settings on record: literature (Hamburger & McCay; Novelli et al.); cited from earlier work.
A short description of series [8]: Inhibition of oxidation of soy PC liposome initiated with hydrogen peroxide and Fe2+ (thiobarbituric acid readout). In kind it is biochemical. The settings on record: amount required to inhibit 100% of oxidation of soy liposome over 15 minutes; 50uM H2O2, 50uM Fe2+, 37°C, pH 7.0. The text has this: One such assay is based upon the fact that the lipid, soybean phosphatidylcholine, readily undergoes oxidation. This oxidation may be initiated by a variety of oxidizing agents such as Fe^2+ and H2O2, or 2,2'-azobis-(2-amidinopropane). A spin trapping agent will decrease the rate at which the lipid undergoes oxidation in this assay. This assay is described in detail in: a) Nilsson, U.A., Olsson, L-I, Carlin, G. and Bylund-Fellenius, A-C. (1989) Inhibition of lipid peroxidation by spin labels. Relationships between structure and function. J. Biol. Chem. 264:11131-11135; and b) Aust, S.D. (1985). Lipid peroxidation. In Handbook of Methods for Oxygen Radical Research. (Greenwald, R.A., ed.) CRC Press, Inc. Boca Raton, Florida, pp. 203-207.
Soybean phosphatidylcholine (PC) was obtained from commercial suppliers such as Sigma or Avanti Polar Lipids. The soy PC was dissolved in ethanol achieving a final concentration of 0.563mM. […]
The ability of a compound to inhibit oxidation of the soy PC liposome was evaluated in the following manner. […]
The samples were heated at 100°C for 20 minutes, cooled and centrifuged. The absorbance of the resulting supernatant was determined at 532-580nm. Quantitation of the thiobarbituric acid/oxidized PC complex was determined by comparison to a standard curve of malondialdehyde equivalents generated by acid catalysed hydrolysis of 1,1,3,3-tetraethoxypropane. […]

Series [9] is described as follows: Inhibition of oxidation of soy PC liposome by Fe2+/histidine-Fe3+ (thiobarbituric acid readout). The settings on record: histidine/Fe3+ 250:50uM, initiated with 50 uM Fe2+; 15 minutes, 37°C. It is filed as biochemical.
[10] abbreviates: dose 3 mg/kg IP 30 minutes prior to endotoxin (30mg/kg IP).
Setting [11] is: dose 10 mg/kg IP 30 minutes prior to endotoxin (30mg/kg IP).
The mark [12] stands for this setting: dose 30 mg/kg IP 30 minutes prior to endotoxin (30mg/kg IP).

pIC50: −log10 of the molar value.

The values below come from patent EP0532027B1, “Cyclic nitrones, their preparation and pharmaceutical compositions containing them” (MERRELL PHARMACEUTICALS INC., priority 1991, dated 1993).

As to `CC1(C)Cc2ccccc2C=[N+]1[O-]` [Example I, 3,4-Dihydro-3,3-dimethylisoquinoline N-oxide], the “locomotor activity of ischemic gerbils” value in [1] (30mg/kg) and in [1] (100mg/kg) was “significantly decreased” in each case. Moreover, the “protective effect in gerbil model” value in series [1] was “protective effect”. Further, in series [1] (non-ischemic gerbils, Figure I), the “locomotor activity of non-ischemic gerbils” value is reported as “no effect”. The “neuronal loss of ischemic gerbils” value in [1] (various doses, versus control and non-ischemic gerbils, Figure IV) is “saved significant amounts of neuronal tissue”. Further, the “% Surviving” value in [2] (setting [10]) is listed as 33%; in [2] (setting [11]) it was 58%; in [2] (setting [12]) it was 83%. The figures for the “Survival Rate” value in series [2] (setting [10]), in series [2] (setting [11]) and in [2] (setting [12]) were 4/12, 7/12 and 10/12, respectively. Further, the negative-log IC50 (pIC50) in series [3] is 3.48. Also, the “IL-1 (picrogram/ml-serum)” value in series [4] was determined as 6.4 picrogram/ml-serum.

Regarding `CC(C)(C)[N+]([O-])=Cc1ccccc1` [PBN, α-phenyl N-tert-butyl nitrone], the “CNS damage in gerbil model of stroke” value in [5] is “less CNS damage”. The “myocardial dysfunction occurring after reperfusion” value in [6] was “decreases the amount of myocardial dysfunction”. In addition, the “survival in animal models of circulatory shock” value in series [7] is reported as “significantly increase survival”.

As for `[O-][N+]1=Cc2ccccc2CC12CCCC2` [Example III, Spiro [cyclopentane-1,3']-[1H]dihydroisoquinoline 2-oxide], the “IC100 Required to prevent Oxidation of Soybean Phosphatidylcholne by Fe^+2/H202” value in series [8] is 0.3 mM. Also, in series [9], the “IC100 Required to prevent Oxidation of Soybean Phosphatidylcholne by Fe^+2/histidine-Fe^3+” value is 0.7 mM. In addition, the “protective effect in gerbil model” value in series [1] is recorded as “protective effect”. For the same compound, the “% Surviving” value is on record as 17% in [2] (setting [11]) and 91% in [2] (setting [12]). Moreover, the “Survival Rate” value in series [2] (setting [11]) is 2/12; in [2] (setting [12]), 10/11. In series [3], this compound had a pIC50 of 4.00. Moreover, in [4], the “IL-1 (picrogram/ml-serum)” value is listed as 10.2 picrogram/ml-serum.

On to `[O-][N+]1=Cc2ccccc2CC12CCCCC2` [Example II, Sprio [cyclohexane-1,3']-3,4-dihydroisoquinoline-N-oxide], for which, in series [8], the “IC100 Required to prevent Oxidation of Soybean Phosphatidylcholne by Fe^+2/H202” value stood at 0.1 mM. Also, in series [9], the “IC100 Required to prevent Oxidation of Soybean Phosphatidylcholne by Fe^+2/histidine-Fe^3+” value amounted to 0.3 mM. For the same compound, the “protective effect in gerbil model” value in series [1] was “protective effect”. Further, in series [2] (setting [10]), the “% Surviving” value amounted to 30% and the “Survival Rate” value is 3/10. Moreover, in series [2] (setting [11]), the “% Surviving” value turned out to be 91% and the “Survival Rate” value is reported as 19/23. This compound also showed a negative logarithm of the IC50 (pIC50) in series [3] of 3.70. Further, in [4], the “IL-1 (picrogram/ml-serum)” value was 4.7 picrogram/ml-serum.

What is called pIC50 is −log10 of the IC50, conventionally taken in molar units.
